Molecules are shown by their SMILES. A value given as a limit tells only on which side of the number the result lay.

As a reminder, the melting point is the temperature, or range, at which the solid turns liquid. In turn, `CCCC1=NN(c2ccc(S(=O)(=O)NC(C)(C)C)cc2)C(=O)C1=CNc1ccccc1OCC` showed a melting point of 254 °C.
With `COc1cn(-c2ccc(-n3cc(Cl)cn3)cc2F)nc(-c2ccnn2-c2ccccc2)c1=O` the figure was 190 to 192 °C.
The figure for `Oc1cc(C(O)(c2ccccc2)c2ccccc2)c2ccccc2n1` is more than 350 °C; for `O=S(=O)(c1ccc(F)cc1)c1cncc(OC2SCC(O)C(O)C2O)c1` (centres undefined) it is 93 to 96 °C.
The figure for `O=C(O)c1cc(NC(=O)C(CS)Cc2ccccc2)ccc1Cl` (centres undefined) is 190 to 192 °C.
`O=C(O)c1cccc(-n2c(-c3ccccc3)cc3c2CCCC3)c1` returned a melting point of 191 to 193 °C.
`CC1(C)CCOc2c(CC#Cc3ccc(C(=O)O)c(O)c3)cccc21` gave a melting point of 182 to 183 °C.
`COc1cccc(NC(=O)C(C)(C)C)c1`: the melting point came to 126 °C.
For the molecule `COc1c(CN2CCNC2=C[N+](=O)[O-])cc(C)nc1[N+](=O)[O-]`, the melting point fell in the range of 177 to 181 °C.
`CCOP(=O)(Cc1ccc(NC(=O)CCc2c(C)noc2-c2ccccc2)cc1)OCC` registered a melting point of 114 to 115 °C.
The molecule `CC(=O)OC1CSC(Oc2cc(F)cnc2Cl)C(OC(C)=O)C1OC(C)=O` (centres undefined) gave a melting point of 185 °C.
As to `Cn1c(=O)cc(-c2cccc(O)c2)c2cccnc21`, the melting point was 260 to 261 °C.
With `CCCn1c(=O)c2[nH]c(-c3cc(C)n(CC(=O)Nc4ccc(N(C)C)cc4)n3)nc2n(CCC)c1=O` the figure was more than 300 °C.
In turn, `COC(=O)C1=Cc2cccc(C(F)F)c2OCC1` returned a melting point of 97 to 99 °C.
With `CN1CCN(c2ccc(C(=O)N3CCCCc4ccccc43)c(Cl)c2)CC1` the figure was 138 to 140 °C; with `COc1cc(OC)nc(C(=O)NS(=O)(=O)NC(C)C)n1`, 167 to 169 °C.
In turn, `O=[N+]([O-])c1cnn2c(-c3ccccc3C(F)(F)F)ccnc12` came in with a melting point of 195 to 197 °C.
The molecule `CC(O)(CF)C(=O)Nc1ccc(S(=O)(=O)c2ccccc2)cc1` (centres undefined) displayed a melting point of 189 to 192 °C.
With `O=C(Nc1ccc(-n2nc(C(F)(F)F)cc2C(F)(F)F)cc1)c1sccc1Br` the figure was 139 to 140 °C; with `CC(=O)N[C@H]1CC[C@H](CCN2CCN(c3nccc4ccoc34)CC2)CC1`, 157 °C.
The figure for `CCc1nc(N)nc(N)c1-c1cccc(Cl)c1Cl` is 228 to 230 °C; for `CCOC(=O)c1cc(C)n(-c2cccnc2)c1-c1ccccc1` it is 102 to 103 °C.
`CC#CCOc1ccc(OCC(=O)O)cc1` displayed a melting point of 114 to 116 °C.
With `Cn1nnnc1-c1cn(C)c2cc(Cl)ccc2c1=O` the figure was 270 to 273 °C.
`CCC(=O)Nc1cc(C(=O)O)ccc1N1C(=O)CCC1(CO)CO` yielded a melting point of 217 to 218 °C.
`Clc1ncnc2oc(-c3ccccc3)cc12` returned a melting point of 136 to 138 °C.
With `COc1ccc2cc([C@H](C)C(=O)OCCN(C)C(=O)c3ccc(CO[N+](=O)[O-])cc3)ccc2c1` the figure was 108 to 115 °C; with `O=Cc1nn(-c2ccc(Br)cc2)c2c1CCCC2`, 120 to 121 °C; with `CN1C(=O)CC(C(=O)Nc2ccc(F)cc2)C(=O)c2cc(F)ccc21` (centres undefined), 180 to 182 °C.
The figure for `CN(CC(=O)O)C(=O)CN1CCCC1=O` is 178 °C; for `COC1=C(OC)C(=O)c2cc(Sc3ccccc3Cl)ccc2C1=O` it is 125 to 126 °C.
With `CC(C)(C)OC(=O)N1CCN(C(=O)NNC(=O)OCc2ccccc2)CC1` the figure was 194 to 196 °C.
`O=C(c1cc(=O)c2cc(O)ccc2[nH]1)N1CCC(O)(Cc2ccccc2)CC1` gave a melting point of 178 °C.
The figure for `O=C1Cc2cc(C(=O)CCl)c(Br)cc2N1` is 238 to 239 °C.
With `O=Cc1c(Cl)nc(-c2ccccc2)n1Cc1ccc([N+](=O)[O-])cc1` the figure was 150 to 152 °C; with `CN1C=CC2=C(C=CCC2)CC1=O`, 81 to 82 °C.
The figure for `CC(C)Oc1ccc2ccc(C(N)=O)c(OC(C)C)c2c1` is 145 to 146 °C; for `O=C(N[C@H](Cc1ccc(CC(F)(F)C(F)(F)F)cc1)[C@@H](O)c1cccc(Cl)c1)c1ccc(F)c2ccccc12` (racemic) it is 191 to 192 °C.
The molecule `CC(C)CC(=O)Nc1ccc(Cl)c(-c2ccnc3c(C(=O)c4cccs4)cnn23)c1` gave a melting point of 162 to 165 °C.
With `COc1ccc2cc(C(C)C(=O)ON(C(N)=O)C(C)c3ccoc3)ccc2c1` (centres undefined), the melting point fell in the range of 128 to 134 °C.
`Cc1ccc(S(=O)(=O)N2CCc3ccccc3C(Oc3ccccc3)C2)cc1` (centres undefined) displayed a melting point of 155 to 156 °C.
The molecule `CC(Oc1ccc2nc(NC(=O)NCCC3CCN(C(=O)OC(C)(C)C)CC3)sc2c1)c1c(Cl)ccc(F)c1Cl` (centres undefined) registered a melting point of 95 to 105 °C.
With `CC(=O)OC1CSC(Oc2cncc(F)c2)C(OC(C)=O)C1OC(C)=O` (centres undefined) the figure was 143 °C; with `CC(=O)c1cccc2cc[nH]c12`, 65 to 66 °C.
Molecule `CCOC(=O)CCNC(=O)N1CCc2cc(S(=O)(=O)N3CCN(c4cccc(Cl)c4)CC3)ccc21` showed a melting point of 162 °C.
As to `CC(C)(C)COC(=O)N1CC2CC(CN(CC(O)COc3ccc(C#N)cc3)C2)C1` (centres undefined), the melting point was in the range of 146 to 147 °C.
The figure for `CSc1nsc(NC(=O)Oc2ccccc2)c1C#N` is 244 to 245 °C.
For `COc1ccc2oc(CC(=O)O)c(C)c2c1`, the melting point lay within 113 to 114 °C.
Molecule `CC(=O)N1c2ccccc2CC1C(N)=S` (centres undefined) yielded a melting point of 194 to 195 °C.
The figure for `COC(=O)c1ccc(COc2ccc3cc(-c4ccc(-c5ccccc5)n4Cc4ccc(C(F)(F)F)cc4)ccc3c2)cc1` is 154 to 155 °C; for `CCOC(=O)CNC(=O)Oc1ccc([N+](=O)[O-])c2cccnc12` it is 121 to 122 °C.
With `CN1CCN(c2cc3c(cc2F)c(=O)n(O)c(=O)n3-c2ccccc2F)CC1` the figure was 160 to 162 °C.
With `CSc1ccc(CSc2cccc(C(=O)Nc3ccc(Cl)cn3)c2)cc1` the figure was 159 to 161 °C.
In turn, `CCOC(=O)C1(NC=O)Cc2cccc3c2N(CCC3)C1=O` (centres undefined) had a melting point of 103 to 106 °C.
For the molecule `Nc1nc2c(c(N3CCNCC3)n1)SCCC2`, the melting point is 176 to 178 °C.
`NC(=O)C1(N2C(=O)c3ccccc3C2=O)CCCCC1` registered a melting point of 224 to 226 °C.
With `CC(C)(C)OC(=O)N1CCN(C(=O)CI)CC1` the figure was 69 to 71 °C.
With `O=C(O)[C@@H]1CC[C@H](c2ccccc2)N1C(=O)CCS` the figure was 61 to 64 °C.
With `O=C(O)Cc1cc(C(=O)Cc2ccccc2)ccc1O` the figure was 198 °C; with `CN1CCN(c2cc3c(cc2F)c(=O)c(C(=O)O)cn3C2COC2)CC1`, 178 to 180 °C.
Regarding `CCOC(=O)c1cc2cccc(NS(=O)(=O)c3ccccc3C(F)(F)F)c2[nH]1`, the melting point was 138 to 139 °C.
With `N#CC=Cc1ccc2c(c1)-c1c3c(c4c([nH]c5ccccc54)c1C2)C(=O)NC3` the figure was more than 330 °C.
With `CCC(=O)Nc1ccc(-c2ccnc3c(C(=O)c4ccccc4)cnn23)cc1` the figure was 211 to 213 °C.
With `CCCCN(CC)c1cc(C)nc(Oc2c(C)cc(Cl)cc2C)c1C` the figure was 177 to 178 °C.
Consider `CCOC(=O)Cc1ccc(N[C@@H](CCC(N)=O)C(=O)O)cc1`, for which the melting point came out at 180 °C.
Consider `COCCCNc1c([N+](=O)[O-])cnc2ccccc12`, for which the melting point lay in the range of 93 to 95 °C.
The molecule `N#Cc1cc(C#N)c(-c2ccc(Cl)cc2)[nH]1` returned a melting point of 235 to 240 °C.
For `CCCCc1oc2ccccc2c1C(=O)N(Cc1ccccc1)Cc1ccc2cc(O)ccc2c1`, the melting point fell in the range of 160 to 164 °C.
The figure for `CCn1c(C)nc2cc(C(F)(F)F)c(OC)cc21` is 127 to 130 °C.
`CC(O)C#CC1(O)C(C)C=CCC1(C)C` (centres undefined) registered a melting point of 101 to 104 °C.
In turn, `O=C(CNC(=O)c1ccc(F)c([N+](=O)[O-])c1)OCc1ccccc1` gave a melting point of 84 to 86 °C.
With `CCOC(=O)C1=C(N)NC(N)=C(C(=O)OCC)C1c1ccccc1-c1ccccc1` the figure was 215 °C.
The molecule `CCNc1c([N+](=O)[O-])cc(C(C)(C)C)cc1[N+](=O)[O-]` came in with a melting point of 70 to 73 °C.
In turn, `CCOC(=O)c1cnn2c1nc(S)c1cnc3c(cnn3CC)c12` registered a melting point of 238 to 240 °C.
With `CC(=O)SCC(Cc1ccccc1)C(=O)NN1CCCCCC1` (centres undefined) the figure was 126 °C; with `CCOC(=O)CSc1nc(Cl)cc(Nc2ccc(-c3ccccc3)cc2)n1`, 110 to 112 °C; with `Cc1cc(C)n2nc(S(=O)(=O)Nc3c(F)cccc3F)c(Cl)c2n1`, 194 to 196 °C.
The figure for `O=C(CCCc1ccccc1)NCC(=O)N1c2ccccc2N(Cc2ccccc2)C(=O)[C@H]2CCC[C@H]21` (relative stereo) is 219 to 221 °C.
The molecule `Cc1nc2c(cc1CO)CCCCC2` came in with a melting point of 79 to 80 °C.
Take `CN1C(=O)N(CCCC(NS(=O)(=O)c2ccc(-c3ccc(Cl)cc3)cc2)C(=O)O)C(=O)C1(C)C` (centres undefined): the melting point lay within 68 to 71 °C.
The molecule `CCCCNCCOc1ccc(NC(=O)c2c[nH]c3c2C(=O)CCC3)cc1F` yielded a melting point of 290 to 292 °C.
With `COc1ccc(C)cc1NC(=O)Nc1ccc(N2CCN(C(=O)Nc3cc(OCCO)ccc3C)CC2)cc1` the figure was 121 to 124 °C; with `CCc1nc(NC(=O)C2=C(O)c3ccc4ccccc4c3S(=O)(=O)N2)sc1C`, 268 to 270 °C.
As for `Cc1ccc2c(CC(=O)O)c(C(=O)c3ccc(Cl)cc3)[nH]c2c1`, the melting point lay in the range of 193 to 195 °C.
The figure for `O=S1(=O)NCN(C2CC2)c2cc(F)c(Cl)cc21` is 155 to 158 °C; for `COc1c(N2CCC(n3ccnn3)C2)c(F)c(N)c2c(=O)c(C(=O)O)cn(C3CC3)c12` (centres undefined) it is 208 °C; for `OC(c1ccc(OCc2ccccc2)cc1)c1ccc(OCc2ccccc2)cc1` it is 113 to 120 °C.
In turn, `CCNc1ccc(Cl)cc1[N+](=O)[O-]` gave a melting point of 90 to 91 °C.
Take `O=C(O)[C@H]1C[C@@H](O)CN1C(=O)Nc1ccc(Cl)cc1`: the melting point was in the range of 132 to 134 °C.

Values taken from a melting point compilation (Tetko et al.; mined from patent text by program, amines drawn as free bases though some values may be those of a salt).
